# Results reported in the supplement of paper PMC10307832.
# Experiments:
# Assay in all cases: relative viability (nuclei count vs DMSO), 5 days (fraction); higher = more cells survive
# AZ505 + Navitoclax = compound: C1CCC(CC1)N(CCNCCC2=C3C(=C(C=C2)O)NC(=O)CO3)C(=O)CCNCCC4=CC(=C(C=C4)Cl)Cl [AZ505] + CC1(C)CCC(c2ccc(Cl)cc2)=C(CN2CCN(c3ccc(C(=O)NS(=O)(=O)c4ccc(N[C@H](CCN5CCOCC5)CSc5ccccc5)c(S(=O)(=O)C(F)(F)F)c4)cc3)CC2)C1 [Navitoclax] (partner 0.5 µM)
# In short: (§1)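 Nuclei were stained with Hoechst during a one-step fixation (final 0.05% Triton X-100, 1% formaldehyde, 1 ug/ml Hoechst) carried out 5 days after dosing, then counted on 4× images. The cells, lung cancer lines in 1536-well plates, had been dosed by pin tool the day after seeding with one drug alone or a fixed anchor-drug dose plus five library-drug doses (not always all listed) in √10 steps. Relative viability is the nuclei count in treated wells divided by that in vehicle wells, and each value is the median of duplicate plates.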
# AZ505 + Lapatinib = compound: C1CCC(CC1)N(CCNCCC2=C3C(=C(C=C2)O)NC(=O)CO3)C(=O)CCNCCC4=CC(=C(C=C4)Cl)Cl [AZ505] + CS(=O)(=O)CCNCc1ccc(-c2ccc3ncnc(Nc4ccc(OCc5cccc(F)c5)c(Cl)c4)c3c2)o1 [Lapatinib] (partner 2 µM)
# In short: as §1
# Dactolisib + Luminespib = compound: Cn1c(=O)n(-c2ccc(C(C)(C)C#N)cc2)c2c3cc(-c4cnc5ccccc5c4)ccc3ncc21 [Dactolisib] + CCNC(=O)c1noc(-c2cc(C(C)C)c(O)cc2O)c1-c1ccc(CN2CCOCC2)cc1 [Luminespib] (partner 0.01 µM)
# In short: as §1
# Dactolisib + Dasatinib = compound: Cn1c(=O)n(-c2ccc(C(C)(C)C#N)cc2)c2c3cc(-c4cnc5ccccc5c4)ccc3ncc21 [Dactolisib] + Cc1nc(Nc2ncc(C(=O)Nc3c(C)cccc3Cl)s2)cc(N2CCN(CCO)CC2)n1 [Dasatinib] (partner 0.075 µM)
# In short: as §1
Cell Line,relative viability (AZ505 + Navitoclax; first compound 0.08 µM),relative viability (AZ505 + Navitoclax; first compound 0.253 µM),relative viability (AZ505 + Navitoclax; first compound 0.8 µM),relative viability (AZ505 + Navitoclax; first compound 2.53 µM),relative viability (AZ505 + Navitoclax; first compound 8 µM),relative viability (AZ505 + Lapatinib; first compound 0.08 µM),relative viability (AZ505 + Lapatinib; first compound 0.253 µM),relative viability (AZ505 + Lapatinib; first compound 0.8 µM),relative viability (AZ505 + Lapatinib; first compound 2.53 µM),relative viability (AZ505 + Lapatinib; first compound 8 µM),relative viability (Dactolisib + Luminespib; first compound 0.002 µM),relative viability (Dactolisib + Luminespib; first compound 0.006325 µM),relative viability (Dactolisib + Luminespib; first compound 0.02 µM),relative viability (Dactolisib + Luminespib; first compound 0.06325 µM),relative viability (Dactolisib + Luminespib; first compound 0.2 µM),relative viability (Dactolisib + Dasatinib; first compound 0.002 µM),relative viability (Dactolisib + Dasatinib; first compound 0.006325 µM),relative viability (Dactolisib + Dasatinib; first compound 0.02 µM),relative viability (Dactolisib + Dasatinib; first compound 0.06325 µM),relative viability (Dactolisib + Dasatinib; first compound 0.2 µM)
NCI-H1993,0.859,0.911,0.86,1.01,0.917,0.838,0.764,0.871,0.782,0.941,0.752,0.738,0.637,0.442,0.488,0.553,0.413,0.498,0.505,0.52
NCI-H520,1.05,1.23,1.12,1.22,1.07,0.799,0.828,0.761,0.895,0.983,0.22,0.184,0.233,0.207,0.204,0.182,0.177,0.149,0.122,0.17
NCI-H647,1.02,1.22,1.14,0.97,1.32,1.03,1.11,1.01,1.03,1.17,0.153,0.149,0.109,0.0951,0.0891,0.164,0.191,0.143,0.0579,0.068
NCI-H1792,0.61,0.637,0.592,0.653,0.719,0.822,0.846,0.861,0.852,0.99,0.259,0.403,0.404,0.142,0.11,0.752,0.724,0.724,0.338,0.206
SW 1573,0.893,1.03,1.05,1.09,0.91,1.03,1.04,1.15,1.17,1.09,0.234,0.214,0.214,0.168,0.0994,0.627,0.493,0.306,0.146,0.119
NCI-H1650,1.21,1.34,1.25,1.15,1.14,0.699,0.707,0.794,0.742,0.909,0.19,0.185,0.192,0.206,0.202,0.306,0.3,0.296,0.245,0.205
NCI-H2009,1.21,1.14,1.1,1.19,1.12,0.864,0.928,1.07,0.665,0.86,1.14,1.05,0.89,1,0.362,0.3,0.283,0.291,0.194,0.154
LOU-NH91,0.612,0.694,0.657,0.657,0.804,0.753,0.724,0.761,0.84,0.779,0.378,0.295,0.351,0.316,0.317,0.533,0.591,0.504,0.438,0.351
NCI-H2405,0.449,0.483,0.621,0.524,0.696,0.741,0.766,0.773,0.822,0.893,0.665,0.689,0.755,0.393,0.272,0.224,0.238,0.207,0.213,0.187
LCLC-97TM1,0.446,0.521,0.902,0.735,0.694,1.03,0.948,1.28,1.06,1.3,0.753,0.754,0.661,0.46,0.213,0.811,0.85,0.858,0.853,0.741
NCI-H596,0.862,0.806,0.597,0.803,0.87,0.977,0.94,0.885,0.876,1.05,0.925,0.938,0.583,0.347,0.28,0.629,0.539,0.528,0.384,0.319
NCI-H727,0.501,0.461,0.471,0.428,0.483,0.702,0.765,0.743,0.66,0.781,0.417,0.419,0.351,0.436,0.447,0.384,0.445,0.461,0.3,0.257
H3255,0.439,0.526,0.529,0.698,0.615,0.249,0.235,0.268,0.283,0.247,0.843,0.875,0.912,0.796,0.511,0.489,0.387,0.357,0.397,0.28
SK-MES-1,1.13,1.19,1.29,1.14,1.31,0.406,0.434,0.499,0.473,0.445,0.828,0.744,0.349,0.286,0.171,0.433,0.375,0.307,0.222,0.147
NCI-H1437,1.03,1.14,1.06,1.07,1.08,0.765,0.729,0.757,0.738,0.831,1.15,1.18,1.21,1.14,0.59,0.378,0.426,0.378,0.358,0.227
LU99A,0.745,0.814,0.839,0.894,0.749,0.915,0.965,0.931,1.04,1.01,0.257,0.228,0.29,0.202,0.192,0.621,0.449,0.403,0.225,0.205
HCC-827,1.03,0.966,0.967,0.963,0.98,0.218,0.191,0.171,0.199,0.191,0.532,0.626,0.538,0.401,0.144,0.28,0.331,0.301,0.238,0.207
LK-2,0.825,0.952,0.805,0.934,0.842,0.777,0.837,1,1.05,1.03,0.152,0.198,0.195,0.171,0.197,0.279,0.322,0.31,0.182,0.144
BEN,0.078,0.0642,0.0775,0.0686,0.0829,0.645,0.69,0.728,0.718,1.02,0.382,0.234,0.366,0.25,0.268,0.333,0.288,0.307,0.329,0.262
NCI-H23,0.71,–,0.849,0.819,0.694,1.02,–,0.984,1.23,1.15,0.205,0.208,0.222,0.191,0.203,0.852,0.682,0.679,0.325,0.302
NCI-H1395,1.09,1.06,1.06,1.07,1.18,0.949,0.952,0.911,1.08,0.992,0.544,0.681,0.678,0.434,0.43,0.405,0.405,0.392,0.381,0.355
201T,1.19,1.24,1.17,1.18,1.19,1,1.04,0.957,1.04,1.01,1.15,0.992,0.952,0.89,0.469,0.601,0.538,0.524,0.554,0.346
NCI-H2170,0.541,0.665,0.531,0.666,0.651,0.269,0.278,0.24,0.263,0.275,0.512,0.805,0.722,0.435,0.195,0.644,0.538,0.652,0.486,0.289
NCI-H460,1.02,1.19,0.965,1.11,1.2,0.874,1.1,0.877,0.922,1.07,0.0375,0.0432,0.0185,0.0179,0.0243,0.568,0.503,0.448,0.185,0.112
HCC-15,0.657,0.734,0.697,0.721,0.669,0.741,0.809,0.861,0.805,0.871,0.38,0.303,0.507,0.173,0.142,0.609,0.559,0.499,0.319,0.229
EPLC-272H,1.07,0.967,1.08,0.934,1.06,0.785,0.817,0.867,0.871,0.956,0.691,0.262,0.264,0.203,0.23,0.359,0.254,0.318,0.207,0.233
